Reference: patent US6828318B2 (priority 2000, dated 2004)
Where a name gives a salt, the structure may show the parent alone.

Columns and labels:
male Sprague Dawley rats [1] = assay: Assessment of analgesia: sub-plantar formalin injection into the rat hind paw; format: in vivo; conditions: rat formalin test, second phase t=5 to t=30 min, drug 20 min before formalin
Procedure: Analgesia testing was performed in male Sprague Dawley rats weighing 200-250 g. Drugs were administered 20 minutes prior to a sub-plantar injection of formalin into the right hind paw. The characteristic nociceptive behavioural responses elicited by this injection were rated on a scale from “0”=no effect through to “3”=effect of maximal intensity. As with side effect ratings, all observations were made blind to treatment condition. Ratings of nociception related behaviours were made in two time periods, one from the time of injection for a further five minutes (t=0 to t=5 min), and a second from t=5 min to t=30 min. The response to formalin injection in this model is biphasic, the first phase occurring during the first five minutes consists of a primary inflammation related response. The second phase, occurring over the subsequent 30 minutes is a delayed phase in which the phenomenon of “wind up” or neurally mediated hyperalgesia, is thought to occur. It is the second phase of response that has relevance to sciatica, diabetic neuropathy and other neuropathic chronic pain states. Responses to test compounds were assessed during this second phase from t=5 min to t=30 min. Data were analysed by means of Median tests followed by post hoc Bonferroni corrected Mann-Whitney U-tests.

[2] = biological target: PCP site of the NMDA receptor; assay: NMDA receptor binding: displacement of [3H]-MK-801 from rat cortical homogenates; conditions: rat cortical membranes, 5 nM [3H]-MK-801, 10 μM glutamate, 10 μM glycine; read-out: IC50, potency to displace [3H]-MK-801 from rat cortical homogenates
Text: The NMDA receptor contains several distinct binding domains that can regulate opening of the cationic channel. The phencyclidine (PCP) site of the NMDA receptor can be radiolabeled with [^3H]-(+)-5-methyl-10,11-dihydro-5H-dibenzo[a,d]cyclohepten-5,10-imine hydrogen maleate, [^3H-MK-801]. The following describes the procedure for determining the affinity of compounds for the PCP site in rat cortical membranes.
Frozen rat cortex, homogenized in 10 volumes of ice-cold 0.32-M sucrose is centrifuged at 1,000 g for 12 min and the supernatant stored on ice whilst the pellet is resuspended, rehomogenized and recentrifuged twice more. The three final supernatants are pooled and centrifuged at 30,000 g for 40 min at 4° C. to yield P2 pellets. These are resuspended in ice-cold distilled water, and centrifuged at 30,000 g for 50 min at 4° C. Following three further washes in distilled water, the P2 pellets are stored at −20° C. for at least 18 h. On the day of the assay, membrane pellets are thawed at room temperature, resuspended in ice-cold distilled water and centrifuged at 30,000 g for 20 min. The pellets are resuspended in 50-mM tris-HCl (pH:7.4) and recentrifuged twice more before being resuspended in tris-HCl for immediate use in the assay. Binding assays are performed at equilibrium in a total volume of 200 μL, containing [^3H]-MK-801 (5-nM final conc.), 10-μM glutamate, 10-μM glycine, 160 μL of membrane preparation and additional drugs where appropriate. Non-specific binding is determined using MK-801 (10-μM). The assay is incubated for 120 min at room temperature. The incubation is terminated by rapid filtration through Whatman GF/B filters (pre-soaked in 0.1% PEI solution). The assay tubes and filters are washed five times with 1 mL of ice-cold assay buffer. The filters are placed in poly-Q mini vials with approximately 5 mL of scintillation fluid. The vials are then shaken and left for at least 8 h before being counted on a liquid scintillation counter. To determine the free ligand concentration 3 aliquots (20 μL) of the [^3H]-MK-801 working solution are also counted. Concentration response data for drugs is analysed using a 4 parameter equation fitted by non-linear regression. This yields the half maximally effective drug concentration (IC50) and Hill coefficient.

male Sprague Dawley rats [3] = assay: Assessment of side-effect liability (PCP syndrome), behavioural rating; format: in vivo, rat
Procedure: Side effect liability was assessed by utilising a standardised […] rating of behaviours recognised to be elicited by prototypical psychotomimetic NMDA receptor channel blockers such as phencyclidine and aptiganel (Cerestat™), similar to those reported by Martin et al., Life Sci 1979 24:1699-1703. Groups of eight male Sprague Dawley rats weighing 250-280 g. were placed in Plexiglass chambers and administered test compounds. After 20 minutes the percentage of rats in each group showing the behaviours noted in Table 2 was rated.
Ratings were plotted on ethograms to illustrate the profile of effect of each test compound.

| SMILES | melting point | Minimum effective dose on nociception related behaviours (male Sprague Dawley rats [1]) [mg/kg] | IC50 [2] [µM] | other results |
| --- | --- | --- | --- | --- |
| NCCC1(Cc2ccccc2)C2CC3CC(C2)CC1C3 (centres unmarked) (as salt: hydrochloride) | 195.8 to 196.8 °C | – | – | – |
| Cc1ccc(C2(CC(C)N)C3CC4CC(C3)CC2C4)cc1 (centres unmarked) (as salt: hydrochloride) | 344 to 346 °C | – | – | – |
| NCCC1(c2ccccc2)C2CC3CC(C2)CC1C3 (centres unmarked) (as salt: hydrochloride) [Example 1, 2-[2-(2-Phenyl)adamantyl]ethylamine hydrochloride] | 278 to 281 °C (dec.) | – | – | – |
| NCCC1(c2cccs2)C2CC3CC(C2)CC1C3 (centres unmarked) (as salt: hydrochloride) [Example 2, 2-[2-[2-(2-Thienyl)]adamantyl]ethylamine hydrochloride] | 250.6 to 251.9 °C | – | – | – |
| NCCC1(c2ccccc2)C2CC3CC(C2)CC1C3 (centres unmarked) [Example 1, 2-[2-(2-Phenyl)adamantyl]ethylamine hydrochloride] | – | 20 | 1.09 ± 0.4 | Elicitation of PCP syndrome (PCP related behaviours) (male Sprague Dawley rats [3]; rats, intraperitoneal, twenty minutes prior to test, groups of n=8, hydrochloride): no tendency to elicit “PCP syndrome.” |
| NCCC1(c2cccs2)C2CC3CC(C2)CC1C3 (centres unmarked) [Example 2, 2-[2-[2-(2-Thienyl)]adamantyl]ethylamine hydrochloride] | – | – | 2.7 ± 0.54 | – |
| CNC1(c2ccccc2Cl)CCCCC1=O (centres unmarked) [Ketamine, reference compound] | – | 20 | 6.51 ± 4.54 | Elicitation of PCP syndrome (PCP related behaviours) (male Sprague Dawley rats [3]; rats, intraperitoneal, twenty minutes prior to test, groups of n=8): produces “PCP syndrome” |
| CC12CC3CC(C)(C1)CC(N)(C3)C2 [Memantine, reference compound] | – | 10 | 6.5 ± 0.94 | Elicitation of PCP syndrome (PCP related behaviours) (male Sprague Dawley rats [3]; rat, in vivo, ip): elicits “PCP syndrome” |
